Reference: patent US20260297542A1, “HERBICIDE RESISTANT PLANTS” (SYNGENTA CROP PROTECTION AG, priority 2023, published 2026)
Positions count from the first letter of the chain named.

Tests used:
Test in all cases: E. coli hemG growth inhibition by herbicide, AtPPO1 variant
Format in all cases: cell-based
Conditions in all cases: read-out: percentage growth inhibition
AtPPO1 V127I = target: T1, AtPPO1 V127I (Arabidopsis thaliana, UniProt P55826, V127I)
T1 construct: expressed in transfected cells; host or cells: E. coli BL21(DE3) hemG (hemG replaced by CmR), pET24a plasmid
T1 sequence (P55826 35-537 V127I): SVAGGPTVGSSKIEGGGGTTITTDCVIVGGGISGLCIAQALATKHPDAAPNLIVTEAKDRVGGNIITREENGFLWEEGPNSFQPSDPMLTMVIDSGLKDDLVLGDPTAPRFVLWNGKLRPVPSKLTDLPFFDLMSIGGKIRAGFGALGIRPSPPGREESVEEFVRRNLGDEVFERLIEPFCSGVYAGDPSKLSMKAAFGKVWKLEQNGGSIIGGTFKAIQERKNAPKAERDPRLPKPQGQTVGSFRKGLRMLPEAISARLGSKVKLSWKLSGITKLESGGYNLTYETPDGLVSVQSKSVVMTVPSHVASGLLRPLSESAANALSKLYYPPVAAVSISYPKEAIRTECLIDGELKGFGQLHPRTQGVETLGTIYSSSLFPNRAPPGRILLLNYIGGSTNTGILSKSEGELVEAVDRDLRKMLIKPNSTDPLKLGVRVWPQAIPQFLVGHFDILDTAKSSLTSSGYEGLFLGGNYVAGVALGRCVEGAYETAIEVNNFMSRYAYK
From the text: (§1) A pET24a plasmid containing a DNA sequence encoding a variant of PPO1 derived from Arabidopsis thaliana (AtPPO1), codon-optimised for expression in E. coli and under control of a T7 promoter, was synthesised by Twist Bioscience (SEQ ID NO:3). This plasmid was used as the basis of a Site Saturation Variant Library (SSVL) that substituted the codons at 352 amino acid positions for codons that encoded one of the other 19 amino acids, or removed the codon altogether, resulting in a translation product with a deletion at that position.
(§2) The SSVL was batch-transformed by electroporation into an E. coli BL21(DE3) hemG strain with the hemG gene replaced by CmR conferring resistance to chloramphenicol and spread onto LA supplemented with 50 μg/mL kanamycin, 25 μg/mL chloramphenicol and 20 μg/mL hematin. Each batch consisted of all the plasmids that contained variants at two sites.
(§3) Colonies from batch transformations were inoculated into 500 μL of Terrific broth supplemented with 50 μg/mL kanamycin, 25 μg/mL chloramphenicol and 20 μg/mL hematin in 96-deepwell blocks. Cultures were grown for 24 hours at 37° C. with shaking at 250 rpm.
(§4) Overnight cultures were centrifuged and the cell pellets resuspended with 500 μL of Terrific broth. The resuspended cultures were used at a ratio of 1:100 to inoculate a fresh 96-deepwell block containing 500 μL of Terrific broth supplemented with 0.1 mM IPTG, 50 μg/mL kanamycin, 25 μg/mL chloramphenicol and 6.25 ppm of herbicide […] or E or 0.78 ppm herbicide B or DMSO. Assay cultures were grown for 24 hours at 37° C. with shaking at 250 rpm with the OD600 being measured at 24 hours post inoculation. Strains that grew in both DMSO and herbicide were determined to be herbicide tolerant with the percentage of growth inhibition being calculated as below: […]

AtPPO1 Y426C = target: T2, AtPPO1 Y426C (Arabidopsis thaliana, UniProt P55826, Y426C)
T2 construct: expressed in transfected cells; host or cells: E. coli BL21(DE3) hemG (pET24a, T7 promoter)
T2 sequence (P55826 35-537 Y426C): T1 sequence (P55826 35-537 V127I) with I93V, Y392C
From the text: as §1, §2, §3, §4

AtPPO1 V365M = target: T3, AtPPO1 V365M (Arabidopsis thaliana, UniProt P55826, V365M)
T3 construct: expressed in transfected cells; host or cells: E. coli BL21(DE3) hemG (pET24a, T7 promoter)
T3 sequence (P55826 35-537 V365M): T1 sequence (P55826 35-537 V127I) with I93V, V331M
From the text: as §1, §2, §3, §4

AtPPO1 Y361Q = target: T4, AtPPO1 Y361Q (Arabidopsis thaliana, UniProt P55826, Y361Q)
T4 construct: expressed in transfected cells; host or cells: E. coli BL21(DE3) hemG (pET24a, T7 promoter)
T4 sequence (P55826 35-537 Y361Q): T1 sequence (P55826 35-537 V127I) with I93V, Y327Q
From the text: as §1, §2, §3, §4

Row | SMILES | inhibition at 0.78 ppm (AtPPO1 V127I) | inhibition at 0.78 ppm (AtPPO1 Y426C) | inhibition at 0.78 ppm (AtPPO1 V365M) | inhibition at 0.78 ppm (AtPPO1 Y361Q) | inhibition at 6.25 ppm (AtPPO1 V127I) | inhibition at 6.25 ppm (AtPPO1 Y426C) | inhibition at 6.25 ppm (AtPPO1 V365M) | inhibition at 6.25 ppm (AtPPO1 Y361Q)
1 | C#CCN1C(=O)C(F)(F)Oc2cc(F)c(-n3c(=O)n(C)c(=S)n(C)c3=O)cc21 [Herbicide B, trifludimoxazin] | 28% | 2% | 3% | 19% |  |  |  | 
2 | CCOC(=O)[C@]1(C)CC(c2cc(-n3c(=O)n(C)c(=S)n(C)c3=O)c(F)cc2Cl)=NO1 [Herbicide D, ethyl (5S)-3-[2-chloro-5-(3,5-dimethyl-2,6-dioxo-4-thioxo-1,3,5-triazinan-1-yl)-4-fluoro-phenyl]-5-methyl-4H-isoxazole-5-carboxylate] |  |  |  |  | 23% | 34% | 42% | 32%
3 | CC(C)N(C)S(=O)(=O)NC(=O)c1cc(-n2c(=O)cc(C(F)(F)F)n(C)c2=O)c(F)cc1Cl [Herbicide E, saflufenacil] |  |  |  |  | 69% | 4% | 22% | 0%
